# Reference: ChEMBL document CHEMBL5649169 (ChemMedChem, 2018)
# Tests used:
# [1] = molecular target: Activin receptor type-1 (Homo sapiens) (UniProt Q04771)
# [2] = molecular target: Activin receptor type-1B (Homo sapiens) (UniProt P36896)
# [3] = molecular target: AarF domain-containing protein kinase 1 (Homo sapiens) (UniProt Q86TW2)
# [4] = molecular target: Delta-1-pyrroline-5-carboxylate synthase (Homo sapiens) (UniProt P54886)
# [5] = molecular target: AP-2 complex subunit mu (Homo sapiens) (UniProt Q96CW1)
# [6] = molecular target: Calpain-1 catalytic subunit (Homo sapiens) (UniProt P07384)
# [7] = molecular target: Citron Rho-interacting kinase (Homo sapiens) (UniProt O14578)
# [8] = molecular target: Cytoskeleton-associated protein 4 (Homo sapiens) (UniProt Q07065)
# [9] = molecular target: Drebrin-like protein (Homo sapiens) (UniProt Q9UJU6)
# [10] = molecular target: Deoxycytidine kinase (Homo sapiens) (UniProt P27707)
# [11] = molecular target: Epithelial discoidin domain-containing receptor 1 (Homo sapiens) (UniProt Q08345)
# [12] = molecular target: Dihydropyrimidinase-related protein 3 (Homo sapiens) (UniProt Q14195)
# [13] = molecular target: Cytoplasmic dynein 1 light intermediate chain 1 (Homo sapiens) (UniProt Q9Y6G9)
# [14] = molecular target: Eukaryotic translation initiation factor 4H (Homo sapiens) (UniProt Q15056)
# [15] = molecular target: Eukaryotic translation initiation factor 6 (Homo sapiens) (UniProt P56537)
# [16] = molecular target: Extended synaptotagmin-2 (Homo sapiens) (UniProt A0FGR8)
# [17] = molecular target: Ras GTPase-activating-like protein IQGAP1 (Homo sapiens) (UniProt P46940)
# [18] = molecular target: Lysosome-associated membrane glycoprotein 2 (Homo sapiens) (UniProt P13473)
# [19] = molecular target: Methionine--tRNA ligase, cytoplasmic (Homo sapiens) (UniProt P56192)
# [20] = molecular target: Thiol S-methyltransferase TMT1A (Homo sapiens) (UniProt Q9H8H3)
# [21] = molecular target: Small ribosomal subunit protein mS23 (Homo sapiens) (UniProt Q9Y3D9)
# [22] = molecular target: Nuclear pore complex protein Nup155 (Homo sapiens) (UniProt O75694)
# [23] = molecular target: tRNA N6-adenosine threonylcarbamoyltransferase (Homo sapiens) (UniProt Q9NPF4)
# [24] = molecular target: ATP-dependent 6-phosphofructokinase, liver type (Homo sapiens) (UniProt P17858)
# [25] = molecular target: POTE ankyrin domain family member E (Homo sapiens) (UniProt Q6S8J3)
# [26] = molecular target: 26S proteasome non-ATPase regulatory subunit 3 (Homo sapiens) (UniProt O43242)
# [27] = molecular target: Glycogen phosphorylase, brain form (Homo sapiens) (UniProt P11216)
# [28] = molecular target: Uncharacterized protein FLJ45252 (Homo sapiens) (UniProt Q6ZSR9)
# [29] = molecular target: Arginine--tRNA ligase, cytoplasmic (Homo sapiens) (UniProt P54136)
# [30] = molecular target: RNA-binding protein 28 (Homo sapiens) (UniProt Q9NW13)
# [31] = molecular target: Receptor-interacting serine/threonine-protein kinase 3 (Homo sapiens) (UniProt Q9Y572)
# [32] = molecular target: Large ribosomal subunit protein uL3 (Homo sapiens) (UniProt P39023)
# [33] = molecular target: RuvB-like 1 (Homo sapiens) (UniProt Q9Y265)
# [34] = molecular target: Splicing factor, proline- and glutamine-rich (Homo sapiens) (UniProt P23246)
# [35] = molecular target: Small nuclear ribonucleoprotein Sm D2 (Homo sapiens) (UniProt P62316)
# [36] = molecular target: Sterol O-acyltransferase 1 (Homo sapiens) (UniProt P35610)
# [37] = molecular target: Stress-induced-phosphoprotein 1 (Homo sapiens) (UniProt P31948)
# [38] = molecular target: TAR DNA-binding protein 43 (Homo sapiens) (UniProt Q13148)
# [39] = molecular target: Testis-expressed protein 264 (Homo sapiens) (UniProt Q9Y6I9)
# [40] = molecular target: Non-receptor tyrosine-protein kinase TNK1 (Homo sapiens) (UniProt Q13470)
# [41] = molecular target: Heat shock protein 75 kDa, mitochondrial (Homo sapiens) (UniProt Q12931)
# [42] = molecular target: E3 ubiquitin/ISG15 ligase TRIM25 (Homo sapiens) (UniProt Q14258)
# [43] = molecular target: Tetratricopeptide repeat protein 14 (Homo sapiens) (UniProt Q96N46)
# [44] = molecular target: Vitamin K epoxide reductase complex subunit 1-like protein 1 (Homo sapiens) (UniProt Q8N0U8)
# [45] = molecular target: 14-3-3 protein gamma (Homo sapiens) (UniProt P61981)
# Note: assay method not described here.
smiles,measurement,setting,value
Cc1ccc(C(=O)Nc2cccc(C(F)(F)F)c2)cc1Nc1nc(-c2cccnc2)nc2c1cnn2C,ED50,[1],0.00315 µM
same,ED50,[2],0.177 µM
same,ED50,[3],3.78 µM
same,ED50,[4],224 µM
same,ED50,[5],5.13 µM
same,ED50,[6],3.52 µM
same,ED50,[7],0.771 µM
same,ED50,[8],0.00547 µM
same,ED50,[9],0.133 µM
same,ED50,[10],5 µM
same,ED50,[11],0.484 µM
same,ED50,[12],0.379 µM
same,ED50,[13],0.0244 µM
same,ED50,[14],90.6 µM
same,ED50,[15],3 µM
same,ED50,[16],0.041 µM
same,ED50,[17],4.7 µM
same,ED50,[18],0.0378 µM
same,ED50,[19],0.0806 µM
same,ED50,[20],30.4 µM
same,ED50,[21],20.2 µM
same,ED50,Homo sapiens,0.018 µM
same,ED50,[22],0.537 µM
same,ED50,[23],7.56 µM
same,ED50,[24],111 µM
same,ED50,[25],11.7 µM
same,ED50,[26],6.22 µM
same,ED50,[27],0.0395 µM
same,ED50,[28],0.248 µM
same,ED50,[29],0.886 µM
same,ED50,[30],0.021 µM
same,ED50,[31],2.75 µM
same,ED50,[32],2.64 µM
same,ED50,[33],4.25 µM
same,ED50,[34],6.39 µM
same,ED50,[35],42.7 µM
same,ED50,[36],224 µM
same,ED50,[37],3.83 µM
same,ED50,[38],0.814 µM
same,ED50,[39],5.04 µM
same,ED50,[40],18.8 µM
same,ED50,[41],7.63 µM
same,ED50,[42],401 µM
same,ED50,[43],1.9 µM
same,ED50,[44],5.89 µM
same,ED50,[45],0.00449 µM
Cc1ccc(C(=O)Nc2cccc(C(F)(F)F)c2)cc1Nc1nc(-c2cccnc2)nc2nn(C)cc12,ED50,[1],34000 µM
same,ED50,[2],0.0591 µM
same,ED50,[3],0.0933 µM
same,ED50,[4],41.7 µM
same,ED50,[5],211 µM
same,ED50,[6],0.161 µM
same,ED50,[7],15.6 µM
same,ED50,[8],0.174 µM
same,ED50,[9],0.0059 µM
same,ED50,[10],0.00309 µM
same,ED50,[11],0.136 µM
same,ED50,[12],0.639 µM
same,ED50,[13],0.897 µM
same,ED50,[14],10.8 µM
same,ED50,[15],0.223 µM
same,ED50,[16],0.0286 µM
same,ED50,[17],0.0354 µM
same,ED50,[18],1.72 µM
same,ED50,[19],6.54 µM
same,ED50,[20],2.97 µM
same,ED50,[21],11.4 µM
same,ED50,Homo sapiens,0.0558 µM
same,ED50,[22],0.193 µM
same,ED50,[23],8.47 µM
same,ED50,[24],0.0338 µM
same,ED50,[25],2.45 µM
same,ED50,[26],0.0197 µM
same,ED50,[27],7 µM
same,ED50,[28],0.000276 µM
same,ED50,[29],0.443 µM
same,ED50,[30],1.75 µM
same,ED50,[31],6.31 µM
same,ED50,[32],10.4 µM
same,ED50,[33],8.41 µM
same,ED50,[34],15 µM
same,ED50,[35],9770 µM
same,ED50,[36],7.06 µM
same,ED50,[37],0.0577 µM
same,ED50,[38],0.176 µM
same,ED50,[39],0.0539 µM
same,ED50,[40],0.064 µM
same,ED50,[41],9 µM
same,ED50,[42],0.0528 µM
same,ED50,[43],2.32 µM
same,ED50,[44],2.51 µM
same,ED50,[45],0.68 µM
